Measured values from ChEMBL document CHEMBL1136837, “Unified QSAR approach to antimicrobials. 4. Multi-target QSAR modeling and comparative multi-distance study of the giant components of antiviral drug-drug complex networks” (Bioorg Med Chem, 2009).
pIC50: −log10 of the molar value.

Test system: Human immunodeficiency virus 1
Assay: Antiviral activity against HIV1
Assay type: functional, organism-based

Row | SMILES | pIC50
1 | CCn1cc(C(=O)/C=C(/O)C(=O)O)c2ccccc21 | 5.05
2 | CC(C)c1ccc(Sc2c(C(N)=O)[nH]c3ccc(Cl)cc23)cc1 | 5.72
3 | Cc1cn([C@@H]2C=C(F)[C@H](CO)O2)c(=O)nc1O | 4.00
4 | O=C(O)C(=C\c1ccc(O)c(O)c1)/C(=C\c1ccc(O)c(O)c1)C(=O)O | 5.66
5 | CC1(C)Oc2ccc3cc(CO)c(=O)oc3c2[C@@H](OC(=O)[C@@]23CC[C@](C)(C(=O)O2)C3(C)C)[C@H]1OC(=O)[C@@]12CC[C@](C)(C(=O)O1)C2(C)C | 4.64
6 | CC(=O)c1ccc2[nH]c(C(N)=O)c(S(=O)(=O)c3cc(C)cc(C)c3)c2c1 | 7.82
7 | CC(=O)OCc1cc2ccc3c(c2oc1=O)[C@@H](OC(=O)[C@@]12CC[C@](C)(C(=O)O1)C2(C)C)[C@@H](OC(=O)[C@@]12CC[C@](C)(C(=O)O1)C2(C)C)C(C)(C)O3 | 4.94
8 | O=c1[nH]cnc2c1ncn2[C@@H]1S[C@H](CO)C=C1F | 4.36
9 | O=C1CSC(c2c(F)cccc2F)N1c1ccccn1 (stereo not drawn) | 6.07
10 | C=C[C@@]1(CO)C=C[C@H](n2cc(C)c(=O)[nH]c2=O)O1 | 4.00
11 | OC[C@@H]1O[C@H](n2cnc3c(O)ncnc32)C=C1F | 4.00
12 | Cc1cc(C)cc(Sc2c(C(N)=O)[nH]c3ccc(Cl)cc23)c1 | 8.22
13 | COc1ccc2[nH]cc(C(=O)/C=C(\O)c3nnn[nH]3)c2c1 | 4.40
14 | CCO/N=C(\c1ccc(Br)cc1)C1CCN(C2(C)CCN(C(=O)c3c(C)cc(C)nc3O)CC2)CC1 | 8.19
15 | C=C(C)[C@@H]1CC[C@]2(C(=O)NCCCCCCCC(=O)N[C@@H](CC(C)C)[C@H](O)CC(=O)O)CC[C@]3(C)[C@H](CC[C@@H]4[C@@]5(C)CC[C@H](O)C(C)(C)[C@@H]5CC[C@]43C)[C@@H]12 | 6.48
16 | CC1(C)Oc2ccc3ccc(=O)oc3c2[C@@H](OC(=O)[C@@]23CC[C@](C)(C(=O)O2)C3(C)C)[C@H]1OC(=O)[C@@]12CC[C@](C)(C(=O)O1)C2(C)C [DCK] | 4.79
17 | Cc1cccnc1N1C(=O)CSC1c1c(F)cccc1F (stereo not drawn) | 4.27
18 | CC(C)CN(C[C@@H](O)[C@H](Cc1ccccc1)NC(=O)O[C@H]1CCOC1)S(=O)(=O)c1ccc(N)cc1 | 8.70
19 | O=C1CSC(c2c(Cl)cccc2Cl)N1c1ccc(Br)cn1 (stereo not drawn) | 5.82
20 | Nc1nc2c(ncn2C2C=CC(OCP(=O)(O)OP(=O)(O)OP(=O)(O)OP(=O)(O)COC3C=CC(n4cnc5c(N)ncnc54)C3)C2)c(=O)[nH]1 (stereo not drawn) | 6.15
21 | O=c1nc(O)ccn1[C@@H]1S[C@H](CO)C=C1F | 4.00
22 | Cc1cc(S(N)(=O)=O)ccc1NC(=O)COc1ccc(Cl)cc1C(=O)c1cc(F)cc(C(F)(F)F)c1 | 8.40

Row | SMILES | pIC50
23 | O=c1ccn([C@H]2S[C@@H](CO)C=C2F)c(=O)[nH]1 | 4.00
24 | Cc1cn([C@H]2C=C[C@@](C)(CO)O2)c(=O)[nH]c1=O | 4.00
25 | NNC(=O)c1[nH]c2ccc(Cl)cc2c1Sc1ccc(F)cc1 | 5.30
26 | O=C(O)/C(O)=C/C(=O)c1ccccc1 | 4.60
27 | O=S(=O)(c1ccccc1)n1ccc2ccccc21 | 3.82
28 | C=C(C)[C@@H]1CC[C@]2(C(=O)NCCCCCCCC(=O)O)CC[C@]3(C)[C@H](CC[C@@H]4[C@@]5(C)CC[C@H](O)C(C)(C)[C@@H]5CC[C@]43C)[C@@H]12 | 6.00
29 | Cc1c(O)cccc1C(=O)N[C@@H](CSc1ccccc1)[C@H](O)CN1C[C@H]2CCCC[C@H]2C[C@H]1C(=O)NC(C)(C)C | 7.57
30 | Cc1ncc([N+](=O)[O-])n1CCCOC(c1ccccc1)c1ccccc1 | 4.46
31 | C[C@H]1O[C@@H](n2c(Cl)c(C#N)c3cc(Cl)c(Cl)cc32)[C@H](O)[C@@H]1O | 4.49
32 | C=C(C)[C@@H]1CC[C@]2(C(=O)NCCC(=O)N[C@@H](CC(C)C)C(=O)O)CC[C@]3(C)[C@H](CC[C@@H]4[C@@]5(C)CC[C@H](O)C(C)(C)[C@@H]5CC[C@]43C)[C@@H]12 | 4.41
33 | O=Cc1c(Cl)n([C@@H]2O[C@H](CF)[C@@H](O)[C@H]2O)c2cc(Cl)c(Cl)cc12 | 4.70
34 | COc1ccc(C(OCCn2c([N+](=O)[O-])cnc2C)c2ccccc2)cc1 (stereo not drawn) | 4.07
35 | Cc1cc(/C=C/C#N)cc(C)c1Oc1ccnc(Nc2ccc(C#N)cc2)n1 | 9.00
36 | CCN(CC)Cc1cc2ccc3c(c2oc1=O)[C@@H](OC(=O)[C@@]12CC[C@](C)(C(=O)O1)C2(C)C)[C@@H](OC(=O)[C@@]12CC[C@](C)(C(=O)O1)C2(C)C)C(C)(C)O3 | 4.85
37 | Cc1cccc(C)c1OCC(=O)N[C@@H](Cc1ccccc1)[C@@H](O)C[C@H](Cc1ccccc1)NC(=O)[C@H](C(C)C)N1CCCNC1=O [LOPINAVIR] | 7.47
38 | O=C(O)c1ccc2ccc(/C=C/c3ccco3)nc2c1O | 4.00
39 | COC(=O)C(C)NP(=O)(OC[C@@H]1C=C[C@H](n2cc(C)c(=O)[nH]c2=O)O1)Oc1ccc(Br)cc1 (stereo partly drawn) [STAMPIDINE] | 8.52
40 | O=C(O)/C(O)=C/C(=O)c1ccc(C(=O)/C=C(\O)C(=O)O)cc1 | 5.89
41 | NC(=O)c1[nH]c2ccc(Cl)cc2c1S(=O)(=O)c1cc(Cl)ccc1N | 6.52
42 | COC[C@@H](c1ccc(C(F)(F)F)cc1)N1CCN(C2(C)CCN(C(=O)c3c(C)ncnc3C)CC2)C[C@@H]1C [VICRIVIROC] | 9.28
43 | CCOC(=O)c1cc2ccccc2n1S(=O)(=O)c1ccccc1[N+](=O)[O-] | 3.70
44 | C=C(C)[C@@H]1CC[C@]2(C(=O)NCCCCCCCCCCC(=O)O)CC[C@]3(C)[C@H](CC[C@@H]4[C@@]5(C)CC[C@H](O)C(C)(C)[C@@H]5CC[C@]43C)[C@@H]12 | 6.15

Row | SMILES | pIC50
45 | Cc1c(CO)c(=O)oc2c3c(ccc12)OC(C)(C)[C@H](OC(=O)C12CCC(C)(C(=O)O1)C2(C)C)[C@@H]3OC(=O)C12CCC(C)(C(=O)O1)C2(C)C (stereo partly drawn) | 4.60
46 | C=CC[C@@]1(CO)C=C[C@H](n2cc(C)c(=O)[nH]c2=O)O1 | 4.00
47 | CCO/N=C(\c1ccc(Br)cc1)C1CCN(C2(C)CCN(C(=O)c3c(C)ccc[n+]3[O-])CC2)CC1 | 8.77
48 | OC[C@H]1C=C(F)[C@@H](n2cnc3c(O)ncnc32)S1 | 4.81
49 | OC[C@@H]1C=C(F)[C@@H](n2cnc3c(O)ncnc32)O1 | 4.00
50 | COC(=O)C(=O)CC(=O)c1cc2ccccc2n1C | 3.97
51 | Nc1ncnc2c1ncn2C1C=CC(OCP(=O)(O)OP(=O)(O)C(Br)(Br)P(=O)(O)OP(=O)(O)COC2C=CC(n3cnc4c(N)ncnc43)C2)C1 (stereo not drawn) | 3.70
52 | NNC(=O)c1[nH]c2ccc(Cl)cc2c1S(=O)(=O)c1ccccc1 | 8.00
53 | O=C(O)/C(O)=C/C(=O)c1c[nH]c2ccccc12 | 5.84
54 | Nc1nc2c(ncn2C2C=CC(OCP(=O)(O)OP(=O)(O)C(F)(F)P(=O)(O)O)C2)c(=O)[nH]1 (stereo not drawn) | 4.60
55 | CCOC(=O)c1cc2ccccc2n1S(=O)(=O)c1cc(Cl)ccc1[N+](=O)[O-] | 4.00
56 | O=c1cc(Cc2c(F)cccc2F)nc(SC2CCCC2)[nH]1 | 7.10
57 | CC(C)(C)c1ccc(Sc2c(C(N)=O)[nH]c3ccc(Cl)cc23)cc1 | 5.10
58 | CC(c1cc(=O)[nH]c(NC2CCCC2)n1)c1c(F)cccc1F (stereo not drawn) | 7.40
59 | CCOC(=O)c1[nH]c2c(Cl)cccc2c1S(=O)(=O)c1ccccc1N | 3.70
60 | Cc1cn([C@H]2O[C@H](CO)C=C2F)c(=O)nc1N | 4.00
61 | Cc1cc(=O)oc2c3c(c(CO)cc12)OC(C)(C)[C@H](OC(=O)[C@@]12CC[C@](C)(C(=O)O1)C2(C)C)[C@@H]3OC(=O)[C@@]12CC[C@](C)(C(=O)O1)C2(C)C | 4.82
62 | Cc1cn([C@H]2C=C(F)[C@H](CO)O2)c(=O)nc1O | 4.00
63 | O=C1CSC(c2c(Cl)cccc2Cl)N1c1cccnc1 (stereo not drawn) | 4.02
64 | Nc1nc(O)c2ncn([C@H]3C=C(F)[C@H](CO)O3)c2n1 | 4.00
65 | Cc1c(Cc2c(F)cccc2F)nc(SC2CCCC2)[nH]c1=O | 7.10
66 | O=C(c1cc(Cc2ccccc2)ccn1)c1ccc2cccnc2c1O | 7.30

Row | SMILES | pIC50
67 | Cc1cccc(C)c1C(=O)N1CCC(C)(N2CCC(Cc3ccc(Br)cc3)CC2)CC1 | 8.00
68 | CC(C)OC(=O)c1cn(S(=O)(=O)c2ccccc2)c2ccc(Cl)cc12 | 3.70
69 | Nc1nc(=O)n([C@@H]2C=C(F)[C@H](CO)O2)cc1F | 7.74
70 | NC(=O)O[C@@H]1Cc2ccccc2C1C1=C(O)[C@](Cc2ccccc2)(C[C@H](O)[C@H](Cc2ccccc2)NC(=O)O[C@H]2CCOC2)N=C1 (stereo partly drawn) | 5.70
71 | O=C(O)c1ccc2ccc(/C=C/c3cc(O)cc(/C=C/c4ccc5ccc(C(=O)O)c(O)c5n4)c3)nc2c1O | 4.00
72 | Nc1nc(=O)n([C@@H]2S[C@H](CO)C=C2F)cc1F | 4.94
73 | Nc1ncnc2c1ncn2[C@H]1C=C(F)[C@H](CO)O1 | 4.00
74 | OC[C@@H]1O[C@H](n2cnc3c(O)ncnc32)CC1(F)F | 4.00
75 | O=C(NNC(=O)c1ccccc1S)c1ccccc1S [BIS(THIOSALICYL)HYDRAZIDE] | 5.37
76 | Cc1cc(/C=C/C#N)ccc1Oc1ccnc(Nc2ccc(C#N)cc2)n1 | 9.20
77 | CC1(C)Oc2ccc3cc(CN)c(=O)oc3c2[C@@H](OC(=O)[C@@]23CC[C@](C)(C(=O)O2)C3(C)C)[C@H]1OC(=O)[C@@]12CC[C@](C)(C(=O)O1)C2(C)C | 4.81
78 | NC(=O)c1cc2ccc(Cl)cc2n1S(=O)(=O)c1ccccc1 | 4.18
79 | CCCCCCCCOC(=O)c1cc2c([nH]c3ccccc32)c(-c2ccc3c(n2)C(=O)C(NC(C)=O)=CC3=O)n1 | 5.15
80 | Nc1ncnc2c1ncn2[C@@H]1O[C@H](CO)C=C1F | 6.36
81 | Cc1cn([C@@H]2CC(F)(F)[C@H](CO)O2)c(=O)nc1O | 4.00
82 | Cc1c(Cc2c(F)cccc2F)nc(NC2CCCC2)[nH]c1=O | 7.52
83 | COc1ccc(F)cc1-c1nc2c(N)cccc2n1Cc1c(F)cccc1F | 5.57
84 | CCn1cc(C(=O)CC(=O)C(=O)OC)c2ccccc21 | 4.72
85 | C=C(C)[C@@H]1CC[C@]2(C(=O)NCCCCCCCCCCC(=O)N[C@@H](CC(C)C)C(=O)OC)CC[C@]3(C)[C@H](CC[C@@H]4[C@@]5(C)CC[C@H](O)C(C)(C)[C@@H]5CC[C@]43C)[C@@H]12 | 4.49
86 | Nc1ncnc2c1ncn2[C@@H]1CC(F)(F)[C@H](CO)O1 | 4.00
87 | Cc1cc(=O)oc2c3c(c(CN)cc12)OC(C)(C)[C@H](OC(=O)[C@@]12CC[C@](C)(C(=O)O1)C2(C)C)[C@@H]3OC(=O)[C@@]12CC[C@](C)(C(=O)O1)C2(C)C | 4.82
88 | Cc1ccc(S(=O)(=O)c2c(C(=O)NN)[nH]c3ccc(Cl)cc23)cc1 | 7.30
